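Results reflect a 48-hour exposure of cells in 96-well plates to compound at five concentrations. GI50: concentration for 50% inhibition of growth.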 Active and inactive are the calls of the source. Cut-off read from the data, not from the text of the source: active = GI50 up to about 1.1 µM and inactive = higher.
Key:
Test in all cases: inhibition of tumour cell growth, NCI panel, 48 h
NCI-H23 = tested on: NCI-H23
NCI-H522 = tested on: NCI-H522
SNB-75 = tested on: SNB-75
SK-MEL-5 = tested on: SK-MEL-5
LXFL 529 = tested on: LXFL 529
UACC-257 = tested on: UACC-257
M19-MEL = tested on: M19-MEL
SN12C = tested on: SN12C
M14 = tested on: M14
NCI-H460 = tested on: NCI-H460
OVCAR-4 = tested on: OVCAR-4
CCRF-CEM = tested on: CCRF-CEM
UACC-62 = tested on: UACC-62
LOX IMVI = tested on: LOX IMVI
OVCAR-5 = tested on: OVCAR-5
XF498 = tested on: XF498
RXF 393 = tested on: RXF 393
HL-60 = tested on: HL-60
HCC 2998 = tested on: HCC 2998
A549 = tested on: A549
HCT-15 = tested on: HCT-15
NCI-H226 = tested on: NCI-H226
KM-20L2 = tested on: KM-20L2
SF-539 = tested on: SF-539
SK-MEL-28 = tested on: SK-MEL-28
OVCAR-3 = tested on: OVCAR-3
UO-31 = tested on: UO-31
HOP-18 = tested on: HOP-18
SF-268 = tested on: SF-268
SNB-19 = tested on: SNB-19
RPMI-8226 = tested on: RPMI-8226
COLO 205 = tested on: COLO 205
Malme-3M = tested on: Malme-3M
KM12 = tested on: KM12
HOP-62 = tested on: HOP-62
786-0 = tested on: 786-0
IGROV-1 = tested on: IGROV-1
OVCAR-8 = tested on: OVCAR-8
HT-29 = tested on: HT-29
TK-10 = tested on: TK-10
DMS-273 = tested on: DMS-273
SF-295 = tested on: SF-295
K562 = tested on: K562
SK-MEL-2 = tested on: SK-MEL-2
DLD-1 = tested on: DLD-1
ACHN = tested on: ACHN
MOLT-4 = tested on: MOLT-4
EKVX = tested on: EKVX
SK-OV-3 = tested on: SK-OV-3
SW-620 = tested on: SW-620
CAKI-1 = tested on: CAKI-1
SNB-78 = tested on: SNB-78
U-251 = tested on: U-251
A498 = tested on: A498
HCT-116 = tested on: HCT-116
HOP-92 = tested on: HOP-92

[O-][S+]1c2ccccc2NC(c2ccc3ccccc3c2)CC1c1ccccc1 (stereo not given)
GI50 (NCI-H23): 16.7 µM (inactive)
GI50 (NCI-H522): 17.8 µM (inactive)
GI50 (SNB-75): 24.8 µM (inactive)
GI50 (SK-MEL-5): 17.5 µM (inactive)
GI50 (LXFL 529): 15.7 µM (inactive)
GI50 (UACC-257): 32.4 µM (inactive)
GI50 (M19-MEL): 20.9 µM (inactive)
GI50 (SN12C): 32.6 µM (inactive)
GI50 (M14): 40.5 µM (inactive)
GI50 (NCI-H460): 19.5 µM (inactive)
GI50 (OVCAR-4): 23.9 µM (inactive)
GI50 (CCRF-CEM): 17 µM (inactive)
GI50 (UACC-62): 37.1 µM (inactive)
GI50 (LOX IMVI): 17.9 µM (inactive)
GI50 (OVCAR-5): 42 µM (inactive)
GI50 (XF498): 19.1 µM (inactive)
GI50 (RXF 393): 14.8 µM (inactive)
GI50 (HL-60): 24.3 µM (inactive)
GI50 (HCC 2998): 17.8 µM (inactive)
GI50 (A549): 30.1 µM (inactive)
GI50 (HCT-15): 22.3 µM
GI50 (NCI-H226): 20.6 µM (inactive)
GI50 (KM-20L2): 22.9 µM (inactive)
GI50 (SF-539): 20 µM (inactive)
GI50 (SK-MEL-28): 35.2 µM (inactive)
GI50 (OVCAR-3): 15.6 µM (inactive)
GI50 (UO-31): 18 µM (inactive)
GI50 (HOP-18): > 100 µM (inactive)
GI50 (SF-268): 36.4 µM (inactive)
GI50 (SNB-19): 30.6 µM (inactive)
GI50 (RPMI-8226): 21.6 µM (inactive)
GI50 (COLO 205): 29.9 µM (inactive)
GI50 (Malme-3M): 61.5 µM (inactive)
GI50 (KM12): 16.7 µM (inactive)
GI50 (HOP-62): 40.6 µM (inactive)
GI50 (786-0): 17.3 µM (inactive)
GI50 (IGROV-1): 19.3 µM (inactive)
GI50 (OVCAR-8): 21.2 µM (inactive)
GI50 (HT-29): 22.3 µM (inactive)
GI50 (TK-10): 35.4 µM (inactive)
GI50 (DMS-273): 29.5 µM (inactive)
GI50 (SF-295): 19.1 µM (inactive)
GI50 (K562): 16 µM (inactive)
GI50 (SK-MEL-2): 92.7 µM (inactive)
GI50 (DLD-1): 23.3 µM (inactive)
GI50 (ACHN): 20.8 µM (inactive)
GI50 (MOLT-4): 24 µM (inactive)
GI50 (EKVX): 26.6 µM (inactive)
GI50 (SK-OV-3): 99.1 µM (inactive)
GI50 (SW-620): 20 µM (inactive)
GI50 (CAKI-1): 26.8 µM (inactive)

Cc1c2ncccc2c(C)c2c1[nH]c1ccccc12
GI50 (NCI-H23): 11.1 µM (inactive)
GI50 (NCI-H522): 13 µM (inactive)
GI50 (SNB-75): 10.6 µM (inactive)
GI50 (LXFL 529): 11 µM (inactive)
GI50 (UACC-257): 16.6 µM (inactive)
GI50 (SNB-78): 14.6 µM (inactive)
GI50 (M19-MEL): 13.4 µM (inactive)
GI50 (SN12C): 11.5 µM (inactive)
GI50 (M14): 17.6 µM (inactive)
GI50 (NCI-H460): 5.18 µM (inactive)
GI50 (OVCAR-4): 18 µM (inactive)
GI50 (CCRF-CEM): 10.2 µM (inactive)
GI50 (UACC-62): 15.3 µM (inactive)
GI50 (U-251): 12.2 µM (inactive)
GI50 (LOX IMVI): 5.66 µM (inactive)
GI50 (OVCAR-5): 14.1 µM (inactive)
GI50 (XF498): 12.8 µM (inactive)
GI50 (RXF 393): 13 µM (inactive)
GI50 (HCC 2998): 12.3 µM (inactive)
GI50 (A549): 6.78 µM (inactive)
GI50 (HCT-15): 7.24 µM
GI50 (NCI-H226): 12.7 µM (inactive)
GI50 (KM-20L2): 7.11 µM (inactive)
GI50 (A498): 12.5 µM (inactive)
GI50 (SF-539): 13.2 µM (inactive)
GI50 (SK-MEL-28): 15.6 µM (inactive)
GI50 (OVCAR-3): 14.3 µM (inactive)
GI50 (HCT-116): 5.27 µM (inactive)
GI50 (UO-31): > 10 µM (inactive)
GI50 (HOP-92): 7.98 µM (inactive)
GI50 (HOP-18): 14.2 µM (inactive)
GI50 (SF-268): 13.8 µM (inactive)
GI50 (SNB-19): 13.8 µM (inactive)
GI50 (RPMI-8226): 6.59 µM (inactive)
GI50 (COLO 205): 13.1 µM (inactive)
GI50 (Malme-3M): 15.1 µM (inactive)
GI50 (KM12): 10.3 µM (inactive)
GI50 (HOP-62): 11.8 µM (inactive)
GI50 (786-0): 9.38 µM (inactive)
GI50 (IGROV-1): 12.3 µM (inactive)
GI50 (OVCAR-8): 10.5 µM (inactive)
GI50 (HT-29): 11.3 µM (inactive)
GI50 (TK-10): 17.7 µM (inactive)
GI50 (DMS-273): 4.84 µM (inactive)
GI50 (SF-295): 8.57 µM (inactive)
GI50 (K562): 14.5 µM (inactive)
GI50 (SK-MEL-2): 22.9 µM (inactive)
GI50 (DLD-1): 10.1 µM (inactive)
GI50 (ACHN): 12.9 µM (inactive)
GI50 (MOLT-4): 2.02 µM (inactive)
GI50 (EKVX): 16 µM (inactive)
GI50 (SK-OV-3): 17.4 µM (inactive)
GI50 (SW-620): 6.79 µM (inactive)
GI50 (CAKI-1): 9.23 µM (inactive)
